We go through three molecules from patent US6107291A, “Azepine or larger medium ring derivatives and methods of use” (Amgen Inc., priority 1998, dated 2000).

Experiment [1] deals with Human neutrophil collagenase (HNC) (Homo sapiens, UniProt P22894). Nature of the experiment: Human Neutrophil Collagenase Assay (fluorogenic peptide substrate). Type of experiment: biochemical.
Protocol: Human neutrophil collagenase (HNC) activity is determined by using fluorogenic peptide substrate Dnp-Pro-b-Cyclohexyl-Ala-Gly-Cys (Me)-His-Ala-Lys-(N-methylanthranilic acid)-NH2. The N-terminus Dnp group and the C-terminus N-methyl-anthranilyl moiety (Nma) are fluorescence self-quenching until the peptide is cleaved at the Gly-Cys(me) bond. The fluorescence from the cleavage products is measured on a Bio-Tek Instrument FL500 fluorescence micro-plate reader (excitation at 360 nm, emission at 460 nm). […] The test compounds (at 100, 33 & 10 mM) are compared for their inhibition of HNC activity on the substrate against the activity of Actinonin and Ki's were determined on selected compounds.
The target in experiment [2] is Human fibroblast stromelysin (HFS) (Homo sapiens, UniProt P08254). Nature of the experiment: Human Fibroblast Stromelysin Assay (fluorogenic peptide substrate). Type of experiment: biochemical.
Protocol: Human fibroblast stromelysin (HFS) activity is determined by using fluorogenic peptide substrate Dnp-Pro-b-Cyclohexyl-Ala-Gly-Cys(Me)-His-Ala-Lys-(N-methylanthranilic acid)-NH2. The N-terminus Dnp group and the C-terminus N-methyl-anthranilyl moiety (Nma) are fluorescence self-quenching until the peptide is cleaved at the Gly-Cys(me) bond. The fluorescence from the cleavage products is measured on a Bio-Tek Instrument FL500 fluorescence micro-plate reader (excitation at 360 nm, emission at 460 nm). […] The test compounds (at 100, 33 & 10 mM) are compared for their inhibition of HFS activity on the substrate against the activity of Actinonin and Ki's were determined on selected compounds.
Experiment [3] concerns TNF-α. As to conditions: Phase II human trial, rheumatoid arthritis; cited from earlier work.
Experiment [4] has as its system TNF-α. As to conditions: soluble receptors for TNF-α; cited from earlier work.

A word on the Km: it is the concentration of substrate that gives half-maximal velocity.

Sequence of Human neutrophil collagenase (HNC) (P22894 101-467): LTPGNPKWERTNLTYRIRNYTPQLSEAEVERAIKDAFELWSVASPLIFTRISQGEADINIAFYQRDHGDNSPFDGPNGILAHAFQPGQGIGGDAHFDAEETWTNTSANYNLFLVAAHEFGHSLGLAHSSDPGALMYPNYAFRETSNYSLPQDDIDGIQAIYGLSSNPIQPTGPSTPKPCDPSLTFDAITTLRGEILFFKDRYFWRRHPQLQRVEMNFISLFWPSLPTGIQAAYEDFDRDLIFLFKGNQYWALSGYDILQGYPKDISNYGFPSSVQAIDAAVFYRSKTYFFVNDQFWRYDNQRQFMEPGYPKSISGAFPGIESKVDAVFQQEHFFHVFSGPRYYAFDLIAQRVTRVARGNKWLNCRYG
Sequence of Human fibroblast stromelysin (HFS) (P08254 100-477): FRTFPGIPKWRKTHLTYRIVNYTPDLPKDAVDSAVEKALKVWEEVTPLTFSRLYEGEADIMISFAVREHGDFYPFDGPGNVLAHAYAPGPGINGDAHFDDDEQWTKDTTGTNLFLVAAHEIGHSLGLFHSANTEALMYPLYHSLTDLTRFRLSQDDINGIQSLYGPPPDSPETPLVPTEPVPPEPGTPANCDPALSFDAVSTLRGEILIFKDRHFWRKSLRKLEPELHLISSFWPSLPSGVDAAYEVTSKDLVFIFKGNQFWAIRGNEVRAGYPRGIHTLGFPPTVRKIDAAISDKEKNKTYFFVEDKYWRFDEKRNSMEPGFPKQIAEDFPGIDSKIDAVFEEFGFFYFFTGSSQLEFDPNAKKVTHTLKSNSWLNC

In the case of “Dnp-Pro-b-Cyclohexyl-Ala-Gly-Cys (Me)-His-Ala-Lys-(N-methylanthranilic acid)-NH2”, the Km in experiment [1] and in experiment [2] was 0.051 µM in each case.
In the case of “cA2: a monoclonal antibody specific to TNF-α, cA2”, in the experiment with TNF-α [3], the swollen joint count entry is reported as “improvement in swollen joint count”.

B1: TNFR-55: soluble receptors for TNF-α (protein, UniProt P19438 30-211, looked up)
extracellular domain: LVPHLGDREKRDSVCPQGKYIHPQNNSICCTKCHKGTYLYNDCPGPGQDTDCRECESGSFTASENHLRHCLSCSKCRKEMGQVEISSCTVDRDTVCGCRKNQYRHYWSENLFQCFNCSLCLNGTVHLSCQEKQNTVCTCHAGFFLRENECVSCSNCKKSLECTKLCLPQIENVKGTEDSGTT
modifications: extracellular domain
notes: soluble receptors for TNF-α
Consider B1, for which, in the experiment on TNF-α [4], the “efficacy in animal models of TNF-α mediated disease states” value is “demonstrated efficacy in animal models of TNF-α mediated disease states”.
